These results are taken from ChEMBL document CHEMBL4739717, “Methods of treating cartilage disorders through inhibition of clk and dyrk” (2020).

The target in assay [1] is Dual specificity tyrosine-phosphorylation-regulated kinase 1A (Homo sapiens, UniProt Q13627). The experiment in a line: Inhibition of recombinant DYRK1A (unknown origin) using Ser/Thr 18 peptide as substrate incubated for 1 hr in presence of ATP by FRET assay.
The nature of assay [2]: Induction of chondrogenesis in human MSC assessed as incubated for 6 days by rhodamine B and Nile red staining based imaging analysis. The note with it: bmmsc. The format is functional.
Assay [3] is described as follows: Effect on Wnt signaling pathway in human SW480 cells harbouring TCF/LEF luciferase reporter gene and SP5-Luc reporter gene incubated for 36 to 48 hrs by luminescence assay. The format is cell-based. (In general: Reporter assays use an easily measured gene product as a stand-in for the process of interest.)
Assay [4] can be described thus: Induction of chondrogenesis in human MSC assessed as maximum activity at 100 nM incubated for 6 days by rhodamine B and Nile red staining based imaging analysis relative to control. In kind it is functional. The note with it: BMMSC, 144 h, time 6 day.

The EC50 is the concentration giving half of the maximal effect. For orientation: Emax means the size of the effect at its maximum, as opposed to the concentration needed. As to `c1cncc(-c2cc3c(-c4cc5c(-c6cccnc6)cncc5[nH]4)n[nH]c3cn2)c1`, the EC50 was found to be 17 nM in assay [1], 100 nM in assay [2] and 1340 nM in assay [3]. The Emax at 0.1 µM in assay [4] was determined as 76.4%.
For the molecule `CCC(=O)Nc1cncc(-c2cnc3[nH]nc(-c4cc5c(-c6cccc(F)c6)cncc5[nH]4)c3c2)c1`, the EC50 in assay [1] is 13 nM; in assay [2], 10 nM; in assay [3], 246 nM. Also, in assay [4], the Emax at 0.1 µM worked out at 113%.
On the same counts, the results for `c1cc2[nH]c(-c3n[nH]c4ccc(-c5cncc(CN6CCCCC6)c5)cc34)cc2cn1` are 4 nM, 100 nM, 685 nM and 122%.
On the same counts, the results for `CN1CCN(c2ccnc3[nH]c(-c4n[nH]c5ccc(-c6cncc(N)c6)cc45)cc23)CC1` are 7 nM, 100 nM, 1170 nM and 50.2%.
For `FC1(F)CCN(Cc2cncc(-c3ccc4[nH]nc(-c5cc6c(N7CCCCC7)cccc6[nH]5)c4c3)c2)C1`, the values for the 50% effective concentration (EC50) in assay [1], in assay [2] and in assay [3] were 22 nM, 30 nM and 750 nM, respectively. Moreover, the Emax at 0.1 µM in assay [4] was found to be 160%.
For the molecule `Cc1ncc(-c2cnc3[nH]nc(-c4nc5c(-c6cccc(F)c6)nccc5[nH]4)c3c2)n1C`, the values for the EC50 in assay [1], in assay [2] and in assay [3] were 5 nM, 100 nM and 12.5 nM, respectively. For the same molecule, in assay [4], the Emax at 0.1 µM was 152%.
For `Nc1cncc(-c2ccc3[nH]nc(-c4nc5c(-c6ccccc6F)nccc5[nH]4)c3c2)c1`, the concentration for a half-maximal effect (EC50) in assay [1] worked out at 6 nM; in assay [2] it was 100 nM; in assay [3], 8.8 nM. Besides, the maximal response (Emax) at 0.1 µM in assay [4] is 61.9%.
The corresponding values for `Cc1ncc(-c2ccc3[nH]nc(-c4nc5c(-c6cccc(F)c6)cccc5[nH]4)c3n2)n1C` are 80 nM, 10 nM, 150 nM and 112%.
The corresponding values for `CCCCC(=O)Nc1cncc(-c2ccc3[nH]nc(-c4cc5c(-c6ccoc6)cncc5[nH]4)c3c2)c1` are 13 nM, 30 nM, 915 nM and 122%.
The corresponding values for `Cc1cn(-c2nccc3[nH]c(-c4n[nH]c5ccc(-c6cncc(NC(=O)CC(C)C)c6)nc45)nc23)cn1` are 28 nM, 30 nM, 2900 nM and 69.3%.
With `Nc1cncc(-c2ccc3[nH]nc(-c4cc5c(-c6ccncc6)nccc5[nH]4)c3c2)c1`, the values for the EC50 in assay [1], in assay [2] and in assay [3] were 11 nM, 100 nM and 658 nM, respectively. Also, the Emax at 0.1 µM in assay [4] is 76.8%.
The corresponding values for `CN(C)Cc1cncc(-c2cnc3[nH]nc(-c4nc5c(-c6cc(F)cc(N7CCOCC7)c6)cncc5[nH]4)c3c2)c1` are 11 nM, 30 nM, 21 nM and 114%.
On the same counts, the results for `CN1CCN(c2cccc3[nH]c(-c4n[nH]c5ncc(-c6cncc(CN7CCCCC7)c6)cc45)cc23)CC1` are 34 nM, 300 nM, 4750 nM and 23.6%.
The corresponding values for `FC1(F)CCN(Cc2cncc(-c3cnc4[nH]nc(-c5cc6c(-c7ccoc7)cccc6[nH]5)c4c3)c2)C1` are 11 nM, 30 nM, 1000 nM and 72.1%.
As for `O=C(Cc1ccccc1)Nc1cncc(-c2ccc3[nH]nc(-c4nc5c(-c6cccc(F)c6)cncc5[nH]4)c3c2)c1`, the EC50 was determined as 24 nM in assay [1], 100 nM in assay [2] and 23 nM in assay [3]. For the same molecule, in assay [4], the maximal effect (Emax) at 0.1 µM is 124%.
On the same counts, the results for `O=C(Nc1cncc(-c2cnc3[nH]nc(-c4nc5c(-c6ccoc6)cncc5[nH]4)c3c2)c1)c1ccccc1` are 30 nM, 100 nM, 51 nM and 110%.
With `Cc1ccncc1-c1cc2c(-c3nc4c(-c5cc(F)cc(CNS(C)(=O)=O)c5)cccc4[nH]3)n[nH]c2cn1`, the figures for the EC50 in assay [1], in assay [2] and in assay [3] were 58 nM, 30 nM and 30.4 nM, respectively. Further, the maximal response (Emax) at 0.1 µM in assay [4] worked out at 81.8%.
On the same counts, the results for `CC(C)Nc1cncc(-c2ccc3[nH]nc(-c4nc5c(-c6ccoc6)ccnc5[nH]4)c3n2)c1` are 26 nM, 100 nM, 298 nM and 64.2%.
The corresponding values for `Cc1ccncc1-c1cc2c(-c3cc4cnccc4[nH]3)n[nH]c2cn1` are 11 nM, 10 nM, 389 nM and 61.4%.
Take `CN1CCN(c2nccc3[nH]c(-c4n[nH]c5cnc(-c6cncc(NC(=O)C7CCCCC7)c6)cc45)cc23)CC1`: the half-maximal effective concentration (EC50) came out at 3 nM in assay [1], 10 nM in assay [2] and 3420 nM in assay [3]. The Emax at 0.1 µM in assay [4] stood at 60.8%.
The corresponding values for `CCNCc1cncc(-c2ccc3[nH]nc(-c4cc5c(-c6cc(F)cc(CNS(C)(=O)=O)c6)cncc5[nH]4)c3c2)c1` are 21 nM, 100 nM, over 10000 nM and 58%.
On the same counts, the results for `CC(C)(C)C(=O)Nc1cncc(-c2ccc3[nH]nc(-c4nc5c(N6CCCCC6)cncc5[nH]4)c3c2)c1` are 8 nM, 100 nM, 41 nM and 114%.
As to `Cc1ccncc1-c1ccc2[nH]nc(-c3cc4c(-c5cccnc5)cncc4[nH]3)c2n1`, the concentration giving a half-maximal response (EC50) was 45 nM in assay [1], 10 nM in assay [2] and over 10000 nM in assay [3]. Moreover, in assay [4], the Emax at 0.1 µM amounted to 149%.
Take `c1cncc(-c2ccc3[nH]nc(-c4nc5c(-c6ccoc6)cncc5[nH]4)c3c2)c1`: the values for the EC50 in assay [1], in assay [2] and in assay [3] were 3 nM, 100 nM and 45.4 nM, respectively. In addition, the maximal effect (Emax) at 0.1 µM in assay [4] came to 149%.
Turning to `O=C(Nc1cncc(-c2cnc3[nH]nc(-c4cc5cccnc5[nH]4)c3c2)c1)C1CCCCC1`, the concentration for a half-maximal effect (EC50) stood at 11 nM in assay [1] and 1260 nM in assay [3]. For the same molecule, the Emax at 0.1 µM in assay [4] was found to be 28.5%.
On the same counts, the results for `CN1CCN(c2nccc3[nH]c(-c4n[nH]c5ccc(-c6cncc(NC(=O)C7CCCCC7)c6)cc45)cc23)CC1` are 22 nM, 5270 nM and 37.8%.
With `CC(C)(C)C(=O)Nc1cncc(-c2ccc3[nH]nc(-c4cc5c(-c6ccncc6)ccnc5[nH]4)c3c2)c1`, the values for the EC50 in assay [1] and in assay [3] were 20 nM and over 10000 nM, respectively. Also, in assay [4], the maximum response (Emax) at 0.1 µM is 44.4%.
On the same counts, the results for `CCNCc1cncc(-c2cnc3[nH]nc(-c4cc5c(-c6ccccc6F)cncc5[nH]4)c3c2)c1` are 14 nM, 2300 nM and 37.3%.
On the same counts, the results for `Cc1cn(-c2cncc3[nH]c(-c4n[nH]c5ccc(-c6cncc(NC(=O)C7CCC7)c6)nc45)nc23)cn1` are 8 nM, over 10000 nM and 47.2%.
As for `Nc1cncc(-c2cnc3[nH]nc(-c4cc5c(-c6ccccc6F)ccnc5[nH]4)c3c2)c1`, the half-maximal effective concentration (EC50) in assay [1] came to 59 nM; in assay [3], 745 nM. Besides, the maximal response (Emax) at 0.1 µM in assay [4] came out at 27.6%.
